Assays:
Aphis craccivoral = test: Insecticidal activity against Aphis craccivoral by immersing (dipping aphids on bean sprout); format: in vivo; conditions: for mortality (%) (500 ppm) Aphis: 23° C.
Summary of the method: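 Wingless adult A. craccivora feeding on bean sprouts dipped 5 seconds in compound at 500 ug/mL (0.2 mL/L Triton X-100 aqueous), then held at 23 °C. Mortality counted after 24 hours, three replicates, vehicle-only control.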

Nilaparvata lugens = test: Insecticidal activity against Nilaparvata lugens (planthopper) by spraying; format: in vivo; conditions: for mortality (%) (500 ppm) Nilaparvata-lugens: spraying 2 ml per tumbler, killed counted after 24 hours; for mortality (%) (500 ppm) Nilaparvata lugens: spraying 2 ml, counted after 24 hours
Summary of the method: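 Ten planthoppers per tumbler were introduced 6 hours before spraying with 2 ml of test solution, with clean water as blank control. Each treatment had 3 replicates, and three series were run. Mortality was counted after 24 hours.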

[1] = 500 ppm (500 ug/mL dilution), dipped 5 seconds, killed aphis counted after 24 hours
[2] = 500 ppm, immersing (dipped 5 seconds), counted after 24 hours

Row | Compound | mortality (%) (500 ppm) Aphis (Aphis craccivoral; [2]) | mortality (%) (500 ppm) Nilaparvata lugens (Nilaparvata lugens) | further results
1 | N=C1CCC([N+](=O)[O-])=C2N(Cc3ccc(Cl)nc3)CCN12 [Compound 188] |  |  | mortality (%) (500 ppm) Aphis (Aphis craccivoral; [1]): 55%; mortality (%) (500 ppm) Nilaparvata-lugens (Nilaparvata lugens): 67%
2 | CCC(C)SC1CCC([N+](=O)[O-])=C2N(Cc3ccc(Cl)nc3)CCN21 (stereo not drawn) [Compound 141] | 56 | 89 | 
3 | O=[N+]([O-])C1=C2N(Cc3cnc(Cl)s3)CCN2C(OS(=O)(=O)C(F)(F)F)CC1 (stereo not drawn) [Compound 157] | 56 | 100 | 
4 | CC(C)OC1CCC([N+](=O)[O-])=C2N(Cc3ccc(Cl)nc3)CCCN21 (stereo not drawn) [Compound 77] | 56 | 78 | 
5 | CCOC1CCC([N+](=O)[O-])=C2N(Cc3ccc(Cl)nc3)CCCN21 (stereo not drawn) [Compound 73] | 34 | 56 | 
6 | O=[N+]([O-])C1=C2N(CC3CCOC3)CCCN2C(OCC(F)(F)F)CC1 (stereo not drawn) [Compound 103] | 6 | 100 | 
7 | CCC(=O)OC1CCC([N+](=O)[O-])=C2N(Cc3cnc(Cl)s3)CCN21 (stereo not drawn) [Compound 153] | 29 | 38 | 
8 | CCSC1CCC([N+](=O)[O-])=C2N(Cc3ccc(Cl)nc3)CCN21 (stereo not drawn) [Compound 133] | 100 | 100 | 
9 | CC(C)(C)CN=C1CCC([N+](=O)[O-])=C2N(Cc3ccc(Cl)nc3)CCCN12 [Compound 211] |  |  | mortality (%) (500 ppm) Aphis (Aphis craccivoral; [1]): 34%; mortality (%) (500 ppm) Nilaparvata-lugens (Nilaparvata lugens): 56%
10 | CCCCOC1CCC([N+](=O)[O-])=C2N(Cc3ccc(Cl)nc3)CCCN21 (stereo not drawn) [Compound 79] | 52 | 61 | 
11 | CCC(C)OC1CCC([N+](=O)[O-])=C2N(Cc3cnc(Cl)s3)CCN21 (mixture of isomers) [Compound 33] | 24 | 56 | 
12 | O=[N+]([O-])C1=C2N(Cc3ccc(Cl)nc3)CCN2C(SCC(F)(F)F)CC1 (stereo not drawn) [Compound 135] | 98 | 100 | 
13 | CC(C)CCSC1CCC([N+](=O)[O-])=C2N(Cc3ccc(Cl)nc3)CCN21 (stereo not drawn) [Compound 145] | 67 | 78 | 
14 | CCCC(C)SC1CCC([N+](=O)[O-])=C2N(Cc3ccc(Cl)nc3)CCN21 (stereo not drawn) [Compound 146] | 35 | 97 | 
15 | CCCCN=C1CCC([N+](=O)[O-])=C2N(Cc3cnc(Cl)s3)CCCN12 [Compound 224] |  |  | mortality (%) (500 ppm) Aphis (Aphis craccivoral; [1]): 45%; mortality (%) (500 ppm) Nilaparvata-lugens (Nilaparvata lugens): 66%
16 | COC1CCC([N+](=O)[O-])=C2N(Cc3cnc(Cl)s3)CCCN21 (stereo not drawn) [Compound 86] | 100 | 100 | 
17 | CCCOC1CCC([N+](=O)[O-])=C2N(CC3CCOC3)CCCN21 (stereo not drawn) [Compound 104] | 3 | 24 | 
18 | CCCC(C)SC1CCC([N+](=O)[O-])=C2N(Cc3cnc(Cl)s3)CCN21 (stereo not drawn) [Compound 184] |  |  | mortality (%) (500 ppm) Aphis (Aphis craccivoral; [1]): 12%; mortality (%) (500 ppm) Nilaparvata-lugens (Nilaparvata lugens): 35%
19 | CC(C)COC1CCC([N+](=O)[O-])=C2N(CC3CCOC3)CCCN21 (stereo not drawn) [Compound 108] | 1 | 9 | 
20 | N=C1CCC([N+](=O)[O-])=C2N(Cc3ccc(Cl)nc3)CCCN12 [Compound 201] |  |  | mortality (%) (500 ppm) Aphis (Aphis craccivoral; [1]): 54%; mortality (%) (500 ppm) Nilaparvata-lugens (Nilaparvata lugens): 55%
21 | O=C(OC1CCC([N+](=O)[O-])=C2N(Cc3cnc(Cl)s3)CCN21)c1cc(F)c(F)c([N+](=O)[O-])c1F (stereo not drawn) [Compound 169] |  |  | mortality (%) (500 ppm) Aphis (Aphis craccivoral; [1]): 2%; mortality (%) (500 ppm) Nilaparvata-lugens (Nilaparvata lugens): 13%
22 | CCCCCSC1CCC([N+](=O)[O-])=C2N(Cc3ccc(Cl)nc3)CCN21 (stereo not drawn) [Compound 143] | 23 | 34 | 
23 | CC(C)(C)OC1CCC([N+](=O)[O-])=C2N(Cc3cnc(Cl)s3)CCN21 (racemic) [Compound 34] | 100 | 100 | 
24 | CCCCSC1CCC([N+](=O)[O-])=C2N(Cc3ccc(Cl)nc3)CCN21 (stereo not drawn) [Compound 139] | 34 | 78 | 
25 | O=[N+]([O-])C1=C2N(Cc3ccc(Cl)nc3)CCCN2C(OCCCl)CC1 (stereo not drawn) [Compound 74] | 12 | 13 | 
26 | CN=C1CCC([N+](=O)[O-])=C2N(Cc3ccc(Cl)nc3)CCCN12 [Compound 202] |  |  | mortality (%) (500 ppm) Aphis (Aphis craccivoral; [1]): 89%; mortality (%) (500 ppm) Nilaparvata-lugens (Nilaparvata lugens): 98%
27 | O=C(OC1CCC([N+](=O)[O-])=C2N(Cc3cnc(Cl)s3)CCN21)c1cc(F)c(F)c(F)c1F (stereo not drawn) [Compound 167] |  |  | mortality (%) (500 ppm) Aphis (Aphis craccivoral; [1]): 12%; mortality (%) (500 ppm) Nilaparvata-lugens (Nilaparvata lugens): 4%

Row | Compound | mortality (%) (500 ppm) Aphis (Aphis craccivoral; [2]) | mortality (%) (500 ppm) Nilaparvata lugens (Nilaparvata lugens) | further results
28 | CC(C)SC1CCC([N+](=O)[O-])=C2N(Cc3ccc(Cl)nc3)CCN21 (stereo not drawn) [Compound 137] | 89 | 100 | 
29 | CC(C)(C)OC1CCC([N+](=O)[O-])=C2N(CC3CCOC3)CCN21 (stereo not drawn) [Compound 56] | 100 | 100 | 
30 | CC(C)CSC1CCC([N+](=O)[O-])=C2N(Cc3ccc(Cl)nc3)CCN21 (stereo not drawn) [Compound 140] | 67 | 78 | 
31 | CC(C)COC1CCC([N+](=O)[O-])=C2N(Cc3cnc(Cl)s3)CCCN21 (stereo not drawn) [Compound 94] | 8 | 3 | 
32 | CCC(=O)OC1CCC([N+](=O)[O-])=C2N(Cc3ccc(Cl)nc3)CCN21 (stereo not drawn) [Compound 114] | 56 | 88 | 
33 | COC1CCC([N+](=O)[O-])=C2N(Cc3ccc(Cl)nc3)CCN21 (stereo not drawn) [Compound 2] |  |  | mortality at 500 ppm (Aphis craccivoral; Aphis, 24 h, read-out: mortality (%) (500 ppm) Aphis): 100%; mortality at 500 ppm (Nilaparvata lugens; Nilaparvata lugens, 24 h, read-out: mortality (%) (500 ppm) Nilaparvata lugens): 100%
34 | CC(C)N=C1CCC([N+](=O)[O-])=C2N(Cc3ccc(Cl)nc3)CCN12 [Compound 193] |  |  | mortality (%) (500 ppm) Aphis (Aphis craccivoral; [1]): 93%; mortality (%) (500 ppm) Nilaparvata-lugens (Nilaparvata lugens): 98%
35 | CC1CC(O)N2CCN(Cc3ccc(Cl)nc3)C2=C1[N+](=O)[O-] (stereo not drawn) [Compound 69] | 45 | 56 | 
36 | CC(C)CCN=C1CCC([N+](=O)[O-])=C2N(Cc3ccc(Cl)nc3)CCN12 [Compound 196] |  |  | mortality (%) (500 ppm) Aphis (Aphis craccivoral; [1]): 12%; mortality (%) (500 ppm) Nilaparvata-lugens (Nilaparvata lugens): 25%
37 | CCC(C)OC1CCC([N+](=O)[O-])=C2N(Cc3cnc(Cl)s3)CCCN21 (stereo not drawn) [Compound 95] | 4 | 8 | 
38 | CCCC(C)N=C1CCC([N+](=O)[O-])=C2N(Cc3ccc(Cl)nc3)CCCN12 (stereo not drawn) [Compound 210] |  |  | mortality (%) (500 ppm) Aphis (Aphis craccivoral; [1]): 7%; mortality (%) (500 ppm) Nilaparvata-lugens (Nilaparvata lugens): 77%
39 | CCC(C)OC1CCC([N+](=O)[O-])=C2N(CC3CCOC3)CCCN21 (stereo not drawn) [Compound 109] | 2 | 10 | 
40 | CCCSC1CCC([N+](=O)[O-])=C2N(Cc3ccc(Cl)nc3)CCN21 (stereo not drawn) [Compound 136] | 100 | 100 | 
41 | O=[N+]([O-])C1=C2N(Cc3ccc(Cl)nc3)CCCN2C(O)CC1 (stereo not drawn) [Compound 71] | 6 | 0 | 
42 | CC(C)(C)OC1CCC([N+](=O)[O-])=C2N(CC3CCOC3)CCCN21 (stereo not drawn) [Compound 110] | 67 | 98 | 
43 | O=C(OC1CCC([N+](=O)[O-])=C2N(Cc3ccc(Cl)nc3)CCN21)c1ccc(Cl)c(Cl)c1 (stereo not drawn) [Compound 131] | 3 | 0 | 
44 | CSC1CCC([N+](=O)[O-])=C2N(Cc3ccc(Cl)nc3)CCN21 (stereo not drawn) [Compound 132] | 100 | 100 | 
45 | O=[N+]([O-])C1=C2N(Cc3cnc(Cl)s3)CCN2C(O)CC1 (racemic) [Compound 23] | 87 | 100 | 
46 | CCOC1CCC([N+](=O)[O-])=C2N(Cc3cnc(Cl)s3)CCCN21 (stereo not drawn) [Compound 87] | 100 | 100 | 
47 | O=C(OC1CCC([N+](=O)[O-])=C2N(Cc3ccc(Cl)nc3)CCN21)c1cc(F)c(F)c([N+](=O)[O-])c1F (stereo not drawn) [Compound 130] | 23 | 67 | 
48 | CC(C)OC1CCC([N+](=O)[O-])=C2N(CC3CCOC3)CCN21 (stereo not drawn) [Compound 51] | 34 | 23 | 
49 | CCCN=C1CCC([N+](=O)[O-])=C2N(Cc3ccc(Cl)nc3)CCN12 [Compound 192] |  |  | mortality (%) (500 ppm) Aphis (Aphis craccivoral; [1]): 86%; mortality (%) (500 ppm) Nilaparvata-lugens (Nilaparvata lugens): 100%
50 | O=C(OC1CCC([N+](=O)[O-])=C2N(Cc3ccc(Cl)nc3)CCN21)c1ccc(C(F)(F)F)cc1 (stereo not drawn) [Compound 126] | 93 | 100 | 
51 | CC(C)OC1CCC([N+](=O)[O-])=C2N(Cc3cnc(Cl)s3)CCCN21 (stereo not drawn) [Compound 91] | 69 | 71 | 
52 | O=[N+]([O-])C1=C2N(Cc3cnc(Cl)s3)CCN2C(=NCCCl)CC1 [Compound 215] |  |  | mortality (%) (500 ppm) Aphis (Aphis craccivoral; [1]): 9%; mortality (%) (500 ppm) Nilaparvata-lugens (Nilaparvata lugens): 97%
53 | CCCOC1CCC([N+](=O)[O-])=C2N(Cc3cnc(Cl)s3)CCCN21 (stereo not drawn) [Compound 90] | 34 | 51 | 
54 | CCCCOC1CCC([N+](=O)[O-])=C2N(Cc3cnc(Cl)s3)CCN21 (racemic) [Compound 31] | 56 | 35 | 

Source: patent US7655665B2, “Nitromethylene derivatives and their use” (East China University of Science and Technology, priority 2004, dated 2010)
